{"source": "patent US20220323356A1", "about": "“METAL (HYDR)OXIDE COMPOSITE COMPRISING POORLY SOLUBLE DRUG, METHOD FOR PREPARING SAME, AND PHARMACEUTICAL COMPOSITION COMPRISING SAME” (priority 2020, published 2022)", "origin": "cited, not measured here", "note": "Structures can show the parent of a compound that is named as a salt. *1 amine or outer side, *2 acyl side, *3 side chain or, on linkers, in order; H or OH if unused. Where a SMILES comes first, the peptide text is derived from it. Bridges are numbered along the chain shown (N, C = ends). [ ]: non-standard residue; d: D form. The star is where a group is joined. pTerphenylCO(4''-OnC5H11) = CCCCCOc1ccc(-c2ccc(-c3ccc(C(=O)*)cc3)cc2)cc1; Orn(4R-OH,5R-OH) = O=C([C@H](C[C@@H](O)[C@@H](O)N[*:3])N[*:1])[*:2]; hTyr(3S-OH,4S-OH) = N[C@H](C(=O)O)[C@H](O)[C@@H](O)c1ccc(O)cc1; Pro(3S-OH,4S-Me) = C[C@H]1CN[C@H](C(=O)O)[C@H]1O; Hyp = O=C(O)[C@@H]1C[C@@H](O)CN1", "data": [{"details": "in vivo; cited from earlier work", "values": [{"compound": "C[C@]12CC[C@H](O)CC1=CC[C@@H]1[C@@H]2CC[C@]2(C)C(c3cccnc3)=CC[C@@H]12", "note": "[Abiraterone]", "bioavailability (%)": "<10%"}, {"compound": "O=C1O[C@H]([C@@H](O)CO)C(O)=C1O", "note": "[Ascorbic acid]", "bioavailability (%)": "69%"}, {"compound": "CNC(=O)c1ccccc1Sc1ccc2c(/C=C/c3ccccn3)n[nH]c2c1", "note": "[Axitinib]", "bioavailability (%)": "58%"}, {"compound": "COc1cc(Nc2c(C#N)cnc3cc(OCCCN4CCN(C)CC4)c(OC)cc23)c(Cl)cc1Cl", "note": "[Bosutinib]", "bioavailability (%)": "34%"}, {"compound": "COc1cc2nccc(Oc3ccc(NC(=O)C4(C(=O)Nc5ccc(F)cc5)CC4)cc3)c2cc1OC", "note": "[Cabozantinib]", "bioavailability (%)": "74-93%"}, {"compound": "O=c1[nH]cc(F)c(=O)[nH]1", "note": "[Fluorouracil]", "bioavailability (%)": "28%"}, {"compound": "CC(=O)[C@]1(O)Cc2c(O)c3c(c(O)c2[C@@H](O[C@H]2C[C@H](N)[C@H](O)[C@H](C)O2)C1)C(=O)c1ccccc1C3=O", "note": "[Idarubicin]", "bioavailability (%)": "20-25%"}, {"compound": "CC(=O)O[C@H]1C(=O)[C@@]2(C)[C@H]([C@H](OC(=O)c3ccccc3)[C@]3(O)C[C@H](OC(=O)[C@H](O)[C@@H](NC(=O)c4ccccc4)c4ccccc4)C(C)=C1C3(C)C)[C@]1(OC(C)=O)CO[C@@H]1C[C@@H]2O", "note": "[Paclitaxel]", "bioavailability (%)": "30%"}, {"compound": "CCN(CC)CCOc1ccc2c(c1)C(=O)c1cc(OCCN(CC)CC)ccc1-2", "note": "[Tilorone]", "bioavailability (%)": "60%"}, {"compound": "CC[C@@]1(O)C(=O)OCc2c1cc1n(c2=O)Cc2cc3c(CN(C)C)c(O)ccc3nc2-1", "note": "[Topotecan]", "bioavailability (%)": "30-44%"}, {"compound": "CCN1CCN(Cc2ccc(Nc3ncc(F)c(-c4cc(F)c5nc(C)n(C(C)C)c5c4)n3)nc2)CC1", "note": "[abemaciclib(USAN), abemaciclib]", "bioavailability (%)": "45%"}, {"compound": "CC(=O)N[C@@H](CS)C(=O)O", "note": "[acetylcysteine]", "bioavailability (%)": "10%"}, {"compound": "Oc1ncnc2[nH]ncc12", "note": "[allopurinol]", "bioavailability (%)": "67%"}, {"compound": "CCN(CC)Cc1cc(Nc2ccnc3cc(Cl)ccc23)ccc1O", "note": "[amodiaquine]", "bioavailability (%)": "22%"}, {"compound": "CCCCCOc1ccc(-c2ccc(-c3ccc(C(=O)N[C@H]4C[C@@H](O)[C@@H](O)NC(=O)[C@@H]5[C@@H](O)[C@@H](C)CN5C(=O)[C@H]([C@@H](C)O)NC(=O)[C@H]([C@H](O)[C@@H](O)c5ccc(O)cc5)NC(=O)[C@@H]5C[C@@H](O)CN5C(=O)[C@H]([C@@H](C)O)NC4=O)cc3)cc2)cc1", "note": "[anidulafungin(LY303366), anidulafungin] ({pTerphenylCO(4''-OnC5H11)}-[Orn(4R-OH,5R-OH)]T[Hyp][hTyr(3S-OH,4S-OH)]T[Pro(3S-OH,4S-Me)]; lactam 1-C)", "bioavailability (%)": "2~7%"}, {"compound": "COC(=O)N[C@H](C(=O)N[C@@H](Cc1ccccc1)[C@@H](O)CN(Cc1ccc(-c2ccccn2)cc1)NC(=O)[C@@H](NC(=O)OC)C(C)(C)C)C(C)(C)C", "note": "[atazanavir]", "bioavailability (%)": "60%"}, {"compound": "Cc1c(-c2ccc(O)cc2)n(Cc2ccc(OCCN3CCCCCC3)cc2)c2ccc(O)cc12", "note": "[bazedoxifene]", "bioavailability (%)": "6%"}, {"compound": "COc1cc2c3cc1Oc1c(OC)c(OC)cc4c1[C@@H](Cc1ccc(O)c(c1)Oc1ccc(cc1)C[C@@H]3N(C)CC2)N(C)CC4", "note": "[berbamine]", "bioavailability (%)": "30%"}, {"compound": "N.N.O=C([O-])C1(C(=O)[O-])CCC1.[Pt+2]", "note": "[carboplatin]", "bioavailability (%)": "1.16%"}, {"compound": "COc1ccc2cc1Oc1ccc(cc1)C[C@H]1c3c(cc4c(c3Oc3cc5c(cc3OC)CCN(C)[C@@H]5C2)OCO4)CCN1C", "note": "[cepharanthine]", "bioavailability (%)": "5%"}, {"compound": "Cc1cc(Nc2ncc(Cl)c(Nc3ccccc3S(=O)(=O)C(C)C)n2)c(OC(C)C)cc1C1CCNCC1", "note": "[ceritinib(LDK378), ceritinib]", "bioavailability (%)": "50%"}, {"compound": "CCN(CC)CCCC(C)Nc1ccnc2cc(Cl)ccc12", "note": "(stereo not shown) [chloroquine]", "bioavailability (%)": "50~100%"}, {"compound": "CC(C)C(=O)OCC(=O)[C@@]12O[C@H](C3CCCCC3)O[C@@H]1C[C@H]1[C@@H]3CCC4=CC(=O)C=C[C@]4(C)[C@H]3[C@@H](O)C[C@@]12C", "note": "[ciclesonide]", "bioavailability (%)": "<1%"}, {"compound": "CCN(CC)CCOc1ccc(C(=C(Cl)c2ccccc2)c2ccccc2)cc1", "note": "[clomiphene]", "bioavailability (%)": "90%"}, {"compound": "CC(C)(C)c1nc(-c2cccc(NS(=O)(=O)c3c(F)cccc3F)c2F)c(-c2ccnc(N)n2)s1", "note": "[dabrafenib]", "bioavailability (%)": "95%"}, {"compound": "C[C@H]1O[C@@H](O[C@H]2[C@@H](O)C[C@H](O[C@H]3[C@@H](O)C[C@H](O[C@H]4CC[C@@]5(C)[C@H](CC[C@@H]6[C@@H]5CC[C@]5(C)[C@@H](C7=CC(=O)OC7)CC[C@]65O)C4)O[C@@H]3C)O[C@@H]2C)C[C@H](O)[C@@H]1O", "note": "[digitoxin]", "bioavailability (%)": "98%"}, {"compound": "C[C@H]1O[C@@H](O[C@H]2[C@@H](O)C[C@H](O[C@H]3[C@@H](O)C[C@H](O[C@H]4CC[C@@]5(C)[C@H](CC[C@@H]6[C@@H]5C[C@@H](O)[C@]5(C)[C@@H](C7=CC(=O)OC7)CC[C@]65O)C4)O[C@@H]3C)O[C@@H]2C)C[C@H](O)[C@@H]1O", "note": "[digoxin]", "bioavailability (%)": "50~90%"}, {"compound": "COc1cccc2c1C(=O)c1c(O)c3c(c(O)c1C2=O)C[C@@](O)(C(=O)CO)C[C@@H]3O[C@H]1C[C@H](N)[C@H](O)[C@H](C)O1", "note": "[doxorubicin]", "bioavailability (%)": "5%"}, {"compound": "CC/C(=C(/c1ccc(OCCN(C)C)cc1)c1cccc(O)c1)c1ccccc1", "note": "[droloxifene]", "bioavailability (%)": "2%"}, {"compound": "CCCCc1oc2ccc(NS(C)(=O)=O)cc2c1C(=O)c1ccc(OCCCN(CCCC)CCCC)cc1", "note": "[dronedarone]", "bioavailability (%)": "15%"}, {"compound": "CC1=NN(c2ccc(C)c(C)c2)C(=O)/C1=N\\Nc1cccc(-c2cccc(C(=O)O)c2)c1O", "note": "[eltrombopag]", "bioavailability (%)": "52%"}, {"compound": "C#Cc1cccc(Nc2ncnc3cc(OCCOC)c(OCCOC)cc23)c1", "note": "[erlotinib]", "bioavailability (%)": "59%"}, {"compound": "CO[C@H]1C[C@@H]2CC[C@@H](C)[C@@](O)(O2)C(=O)C(=O)N2CCCC[C@H]2C(=O)O[C@H]([C@H](C)C[C@@H]2CC[C@@H](OCCO)[C@H](OC)C2)CC(=O)[C@H](C)/C=C(\\C)[C@@H](O)[C@@H](OC)C(=O)[C@H](C)C[C@H](C)/C=C/C=C/C=C/1C", "note": "[everolimus]", "bioavailability (%)": "5%"}, {"compound": "NC(=O)c1nc(F)c[nH]c1=O", "note": "[favipiravir]", "bioavailability (%)": "98%"}, {"compound": "CCc1nc(C(N)=O)c(Nc2ccc(N3CCC(N4CCN(C)CC4)CC3)c(OC)c2)nc1NC1CCOCC1", "note": "[gilteritinib]", "bioavailability (%)": "60%"}, {"compound": "Oc1c(Cl)cc(Cl)c(Cl)c1Cc1c(O)c(Cl)cc(Cl)c1Cl", "note": "[hexachlorophene]", "bioavailability (%)": "4~10%"}, {"compound": "CCN(CCO)CCCC(C)Nc1ccnc2cc(Cl)ccc12", "note": "(stereo not shown) [hydroxychloroquine]", "bioavailability (%)": "70%"}, {"compound": "CC(=O)[C@@]1(O)CC[C@H]2[C@@H]3CCC4=CC(=O)CC[C@]4(C)[C@H]3CC[C@@]21C", "note": "[hydroxyprogesterone]", "bioavailability (%)": "3%"}, {"compound": "COC1=C(OC)C(=O)C(CCCCCCCCCCO)=C(C)C1=O", "note": "[idebenone]", "bioavailability (%)": "<1%"}, {"compound": "CC(C)(C)c1cc(C(C)(C)C)c(NC(=O)c2c[nH]c3ccccc3c2=O)cc1O", "note": "[ivacaftor]", "bioavailability (%)": "20~30%"}, {"compound": "CS(=O)(=O)CCNCc1ccc(-c2ccc3ncnc(Nc4ccc(OCc5cccc(F)c5)c(Cl)c4)c3c2)o1", "note": "[lapatinib]", "bioavailability (%)": "60%"}, {"compound": "N#Cc1cc(NC(=O)C(=O)O)c(Cl)c(NC(=O)C(=O)O)c1", "note": "[lodoxamide]", "bioavailability (%)": "71%"}, {"compound": "CN(C)C(=O)C(CCN1CCC(O)(c2ccc(Cl)cc2)CC1)(c1ccccc1)c1ccccc1", "note": "[loperamide]", "bioavailability (%)": "0.3%"}, {"compound": "Cc1cccc(C)c1OCC(=O)N[C@@H](Cc1ccccc1)[C@@H](O)C[C@H](Cc1ccccc1)NC(=O)[C@H](C(C)C)N1CCCNC1=O", "note": "[lopinavir]", "bioavailability (%)": "25%"}, {"compound": "OC(c1cc(C(F)(F)F)nc2c(C(F)(F)F)cccc12)C1CCCCN1", "note": "(stereo not shown) [mefloquine]", "bioavailability (%)": "85%"}, {"compound": "COc1ccc2[nH]cc(CCNC(C)=O)c2c1", "note": "[melatonin]", "bioavailability (%)": "15%"}, {"compound": "O=C(Nc1ccc([N+](=O)[O-])cc1Cl)c1cc(Cl)ccc1O", "note": "[niclosamide]", "bioavailability (%)": "10%"}, {"compound": "Cc1cn(-c2cc(NC(=O)c3ccc(C)c(Nc4nccc(-c5cccnc5)n4)c3)cc(C(F)(F)F)c2)cn1", "note": "[nilotinib]", "bioavailability (%)": "30%"}, {"compound": "C=CC(=O)Nc1cc(Nc2nccc(-c3cn(C)c4ccccc34)n2)c(OC)cc1N(C)CCN(C)C", "note": "[osimertinib(AZD-9291), osimertinib]", "bioavailability (%)": "70%"}, {"compound": "Cc1ccc(Nc2nccc(N(C)c3ccc4c(C)n(C)nc4c3)n2)cc1S(N)(=O)=O", "note": "[pazopanib]", "bioavailability (%)": "14-39%"}, {"compound": "CC(=O)CCCCn1c(=O)c2c(ncn2C)n(C)c1=O", "note": "[pentoxifylline]", "bioavailability (%)": "20%"}, {"compound": "C1CCC(C(CC2CCCCN2)C2CCCCC2)CC1", "note": "(stereo not shown) [perhexiline maleate]", "bioavailability (%)": "80%"}, {"compound": "CCCN[C@H]1CCc2nc(N)sc2C1", "note": "[pramipexole]", "bioavailability (%)": "90%"}, {"compound": "CC(C)(Sc1cc(C(C)(C)C)c(O)c(C(C)(C)C)c1)Sc1cc(C(C)(C)C)c(O)c(C(C)(C)C)c1", "note": "[probucol]", "bioavailability (%)": "6%"}, {"compound": "C[C@@H]1O[C@@H](O[C@@H]2C=C3CC[C@@H]4[C@H](CC[C@]5(C)[C@@H](c6ccc(=O)oc6)CC[C@]45O)[C@@]3(C)CC2)[C@H](O)[C@H](O)[C@H]1O", "note": "[proscillaridin]", "bioavailability (%)": "25%"}, {"compound": "O=c1c(O)c(-c2ccc(O)c(O)c2)oc2cc(O)cc(O)c12", "note": "[quercetin]", "bioavailability (%)": "20%"}, {"compound": "CC[C@@H](C(=O)[C@@H](C)[C@@H](O)[C@H](C)[C@@H]1O[C@@H]([C@@H](CC)C(=O)O)CC[C@@H]1C)[C@H]1O[C@]2(C=C[C@@H](O)[C@]3(CC[C@@](C)([C@H]4CC[C@](O)(CC)[C@H](C)O4)O3)O2)[C@H](C)C[C@@H]1C", "note": "[salinomycin]", "bioavailability (%)": "73%"}, {"compound": "Cc1c(C(=O)Nc2ccc(N3C[C@@H](C)O[C@@H](C)C3)nc2)cccc1-c1ccc(OC(F)(F)F)cc1", "note": "[sonidegib]", "bioavailability (%)": "69%"}]}]}
